Patent US10590158B2 (priority 2015, dated 2020)

Assays:
Assay in all cases: cells
Assay type in all cases: cell-based
[1] = system: MES DX cells; details: MDR1, 72 h, read-out: IC50 MES DX
[2] = system: 293T cells; details: Homo sapiens, HEK-293T, 72 h, read-out: IC50 293T
[3] = system: MES SA cells; details: Homo sapiens, 72 h, read-out: IC50 MES SA

Structure (SMILES) | IC50 [1] [nM] | IC50 [2] [nM] | IC50 [3] [nM]
COC(=O)NC1=C2/C(=C\CSSC)[C@](O)(C#C/C=C\C#C[C@]2(O)OC2OC(C)C(SC)(C(=O)c3nccc4c3[nH]c3ccc(O)cc34)C(O)C2OC2CC(OC)C(NC(C)C)CO2)CC1=O (stereo partly shown) | 34.6 | 0.00146 | 
COC(=O)NC1=C2/C(=C\CSSSC)[C@](O)(C#C/C=C\C#C[C@]2(O)OC2OC(C)C(SC)(C(=O)c3nccc4c3[nH]c3ccc(O)cc34)C(O)C2OC2CC(OC)C(NC(C)C)CO2)CC1=O (stereo partly shown) |  | 0.0162 | 0.0126
